Source: PubChem BioAssay AID1963860 (Molecular Pharmacology Branch, DTP, NCI, 2024)

Tested on: CN0375-F725-PDC KRAS spheroid viability
Experiment: Anticancer human tumor CN0375-F725-PDC patient-derived colon carcinoma cell line growth inhibition [KRAS2]
Settings: spheroids with HUVEC and MSC; for IC50: curve of first compound; for viability, T/C: stronger effect = lower value
In short: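 KRAS-mutant tumor cells were grown as spheroids with HUVEC endothelial cells and human MSCs as stroma. Targeted agents were tested alone and with KRAS pathway inhibitors. Doses started at or near clinical Cmax, or 10 microM, descending half-log.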

[1] = second compound 0.1 µM, first compound 0.0316 µM
[2] = second compound 0.1 µM, first compound 0.1 µM
[3] = second compound 0.1 µM, first compound 0.316 µM
[4] = second compound 0.1 µM, first compound 1 µM
[5] = second compound 0.1 µM, first compound 3.16 µM
[6] = second compound 0.316 µM, first compound 0.0316 µM
[7] = second compound 0.316 µM, first compound 0.1 µM
[8] = second compound 0.316 µM, first compound 0.316 µM
[9] = second compound 0.316 µM, first compound 1 µM
[10] = second compound 0.316 µM, first compound 3.16 µM
[11] = second compound 1 µM, first compound 0.0316 µM
[12] = second compound 1 µM, first compound 0.1 µM
[13] = second compound 1 µM, first compound 0.316 µM
[14] = second compound 1 µM, first compound 1 µM
[15] = second compound 1 µM, first compound 3.16 µM
[16] = second compound 3.16 µM, first compound 0.0316 µM
[17] = second compound 3.16 µM, first compound 0.1 µM
[18] = second compound 3.16 µM, first compound 0.316 µM
[19] = second compound 3.16 µM, first compound 1 µM
[20] = second compound 3.16 µM, first compound 3.16 µM
[21] = second compound 10 µM, first compound 0.0316 µM
[22] = second compound 10 µM, first compound 0.1 µM
[23] = second compound 10 µM, first compound 0.316 µM
[24] = second compound 10 µM, first compound 1 µM
[25] = second compound 10 µM, first compound 3.16 µM
[26] = second compound 0.1 µM, first compound 0.01 µM
[27] = second compound 0.316 µM, first compound 0.01 µM
[28] = second compound 1 µM, first compound 0.01 µM
[29] = second compound 3.16 µM, first compound 0.01 µM
[30] = second compound 10 µM, first compound 0.01 µM
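Note: spheroids exposed to agents for 7 days.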

Compound | IC50 (second compound 0.1 µM) [nM] | IC50 (second compound 0.316 µM) [nM] | IC50 (second compound 1 µM) [nM] | IC50 (second compound 3.16 µM) [nM] | IC50 (second compound 10 µM) [nM] | viability, T/C [1] [%] | viability, T/C [2] [%] | viability, T/C [3] [%] | viability, T/C [4] [%] | viability, T/C [5] [%] | viability, T/C [6] [%] | viability, T/C [7] [%] | viability, T/C [8] [%] | viability, T/C [9] [%] | viability, T/C [11] [%] | viability, T/C [12] [%] | viability, T/C [16] [%] | viability, T/C [17] [%] | viability, T/C [21] [%] | viability, T/C [22] [%] | further results
CC1OCC2(CCN(c3cnc(Sc4ccnc(N)c4Cl)c(N)n3)CC2)C1N (stereo not given) + CNCc1ccccc1-c1csc(C(C)Nc2nc(C)nc3cc(OC)c(OC)cc23)c1 | > 10000 | > 10000 | 150 | < 31.6 | < 31.6 | 95.7 | 86.1 | 75.8 | 78.5 | 76.3 | 94.2 | 83.7 | 73.7 | 76.2 | 55.3 | 53.7 | 0.54 | 0.29 | 0.19 | 0.41 | viability, T/C (second compound 0.1 µM, first compound 10 µM): 61.4%; viability, T/C [10]: 67.2%; viability, T/C (second compound 0.316 µM, first compound 10 µM): 50.5%; viability, T/C [13]: 43.7%; viability, T/C [14]: 39%; viability, T/C [15]: 27.7%; viability, T/C (second compound 1 µM, first compound 10 µM): 11.5%; viability, T/C [18]: 0.49%; viability, T/C [19]: 0.25%; viability, T/C [20]: 0.31%; viability, T/C (second compound 3.16 µM, first compound 10 µM): 0.37%; viability, T/C [23]: 0.27%; viability, T/C [24]: 0.2%; viability, T/C [25]: 0.53%; viability, T/C (second compound 10 µM, first compound 10 µM): 0.17%
CC(=O)OC12COC1CC(O)C1(C)C(=O)C(O)C3=C(C)C(OC(=O)C(O)C(NC(=O)OC(C)(C)C)c4ccccc4)CC(O)(C(OC(=O)c4ccccc4)C21)C3(C)C (stereo not given) + COc1cc2nc(C)nc(NC(C)c3cc(N)cc(C(F)(F)F)c3)c2cc1OC1CCOC1 | > 3160 | > 3160 | > 3160 | > 3160 | 1080 | 96.2 | 87.8 | 84.4 | 80.5 | 72.7 | 91.8 | 83.6 | 80 | 74.9 | 101 | 87.8 | 70.6 | 75.1 | 65.6 | 64.6 | viability, T/C [26]: 99.6%; viability, T/C [27]: 91%; viability, T/C [10]: 69.5%; viability, T/C [28]: 89.8%; viability, T/C [13]: 82.7%; viability, T/C [14]: 80.4%; viability, T/C [15]: 71.4%; viability, T/C [29]: 77.7%; viability, T/C [18]: 63.4%; viability, T/C [19]: 71.1%; viability, T/C [20]: 63.6%; viability, T/C [30]: 68.3%; viability, T/C [23]: 52.6%; viability, T/C [24]: 54.9%; viability, T/C [25]: 39.9%
CN(C)C/C=C/C(=O)Nc1cc2c(Nc3ccc(F)c(Cl)c3)ncnc2cc1O[C@H]1CCOC1 + COc1cc2nc(C)nc(NC(C)c3cc(N)cc(C(F)(F)F)c3)c2cc1OC1CCOC1 | > 100 | > 100 | > 100 | > 100 | > 100 | 84.8 | 77.9 | – | – | – | 78.1 | 79.3 | – | – | 81.6 | 78.1 | 66.5 | 65.8 | 60.6 | 63.7 | viability, T/C (second compound 0.1 µM, first compound 0.000316 µM): 102%; viability, T/C (second compound 0.1 µM, first compound 0.001 µM): 92.6%; viability, T/C (second compound 0.1 µM, first compound 0.00316 µM): 85.7%; viability, T/C [26]: 83.7%; viability, T/C (second compound 0.316 µM, first compound 0.000316 µM): 96%; viability, T/C (second compound 0.316 µM, first compound 0.001 µM): 92.5%; viability, T/C (second compound 0.316 µM, first compound 0.00316 µM): 86.4%; viability, T/C [27]: 85.7%; viability, T/C (second compound 1 µM, first compound 0.000316 µM): 91.9%; viability, T/C (second compound 1 µM, first compound 0.001 µM): 94.6%; viability, T/C (second compound 1 µM, first compound 0.00316 µM): 87.3%; viability, T/C [28]: 82.7%; viability, T/C (second compound 3.16 µM, first compound 0.000316 µM): 77.3%; viability, T/C (second compound 3.16 µM, first compound 0.001 µM): 71.5%; viability, T/C (second compound 3.16 µM, first compound 0.00316 µM): 71.8%; viability, T/C [29]: 66.1%; viability, T/C (second compound 10 µM, first compound 0.000316 µM): 65.5%; viability, T/C (second compound 10 µM, first compound 0.001 µM): 70.1%; viability, T/C (second compound 10 µM, first compound 0.00316 µM): 68.2%; viability, T/C [30]: 47%
